Measurements: patent US8652442B2, “Bioluminescence imaging of myeloperoxidase activity in vivo, methods, compositions and apparatuses therefor” (Washington University, priority 2008, dated 2014)
Like-named read-outs stand apart in the source and are kept apart here. Blank lines part the entries; values can stand above or below the compound they belong to.

How the values were obtained:
[1] = tested on: PMA-stimulated whole blood
Protocol: Blood was freshly drawn (100-300 μL, by jugular puncture) from MPO^−/− or control MPO^+/+ mice. Blood was stored for up to 6 h in heparinized tubes at room temperature. Ex vivo BLI experiments using whole blood were performed in black-coated 96-well plates. Briefly, 1 μL of blood was diluted in 200 μL of MEBSS supplemented with luminol (100 μM), in the absence or presence of increasing concentrations of 4-ABAFT (0-6.6 mM), L-NMMA (1 mM) or DPI (10 μM). Samples were imaged (exposure time, 60 sec; binning, 4; FOV, 10 cm; open filter) before (t=0) and at the indicated time points after stimulation with PMA (5 μM) or vehicle (DMSO, 1 μL). Photon fluxes±s.e.m. were plotted as a function of time post PMA (min) or concentration of inhibitor.
Luminol-oxidation can be visualized by bioluminescence imaging and is dependent on MPO activity in vitro. Luminol-dependent BL of stimulated phagocytes and whole blood has been extensively studied using photo-multiplier tube (PMT)-based luminometers. To determine whether BLI could be similarly used to detect oxidant production in biological material, we used a charge-coupled device (CCD)-based bioluminescence imaging system to monitor phagocyte activation in heparinized whole blood (1 μL). Fresh heparinized whole blood (1 μL) was incubated with luminol (100 μM) in MEBSS (200 μL). […] Images show sequential color-coded maps of photon flux superimposed on black & white photographs of the assay plates (FIG. 1b).
It is important to note that metals such as iron are highly abundant in blood, but are confined to specific cellular compartments, i.e., hemoglobin in erythrocytes or cytochromes in mitochondrial membranes. […] At t=0, PMA was added to a final concentration of 5 μM and BL was monitored for 60 min at 7.5 min intervals.
To determine the relative contribution of other ROS to the BL signal induced by luminol in stimulated blood ex vivo, we focused on two enzymatically-catalyzed ROS products, O2.- and NO., generated by the Phox complex and nitric oxide synthase (NOS), respectively, as well as their reaction product, peroxynitrite (ONOO^−). Freshly-drawn blood (1 μL) from an MPO^+/+ mouse was incubated with the NOS inhibitor L-NMMA (1 mM) or the Phox inhibitor DPI (10 μM), respectively, and imaged 20 min after stimulation with PMA (5 μM).

purified MPO = target: T1, purified MPO (Homo sapiens, UniProt P05164); test: Output of LGTR and luminol in vitro with purified MPO and H2O2; format: biochemical; conditions: for light output: purified MPO mixed with 100% serum rather than MEBSS
T1 construct: purchased Calbiochem
T1 sequence (P05164 279-745 limits assumed): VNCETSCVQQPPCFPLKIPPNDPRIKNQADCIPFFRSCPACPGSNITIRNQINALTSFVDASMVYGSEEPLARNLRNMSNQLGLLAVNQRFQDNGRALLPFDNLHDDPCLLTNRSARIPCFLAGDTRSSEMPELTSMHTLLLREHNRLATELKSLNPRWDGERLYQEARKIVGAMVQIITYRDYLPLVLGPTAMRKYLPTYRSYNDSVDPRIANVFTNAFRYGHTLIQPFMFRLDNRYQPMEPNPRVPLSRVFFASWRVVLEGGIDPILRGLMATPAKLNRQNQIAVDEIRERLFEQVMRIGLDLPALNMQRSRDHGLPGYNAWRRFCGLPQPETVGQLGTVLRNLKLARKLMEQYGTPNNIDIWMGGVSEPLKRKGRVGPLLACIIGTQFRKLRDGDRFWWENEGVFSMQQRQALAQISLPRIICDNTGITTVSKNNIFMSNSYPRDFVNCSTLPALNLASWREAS
T1 sequence (P05164 165-273 limits assumed): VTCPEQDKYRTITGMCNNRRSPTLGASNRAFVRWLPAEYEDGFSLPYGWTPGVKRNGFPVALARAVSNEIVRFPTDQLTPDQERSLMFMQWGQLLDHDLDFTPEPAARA
From the text: To analyze the output of LGTR and luminol in vitro, […] of each were mixed with purified MPO (5 mU) and vehicle (MEBSS).

MPO activity [2] = test: BLI of allergic contact hypersensitivity with topical LGTR or luminol, optical filter sets; format: in vivo, mice
Protocol: Thirty min later, mice were simultaneously imaged in the IVIS 100 imaging system (FOV, 10 cm; binning, 8; acquisition time, 300 sec; f/stop, 1) using four different optical filter sets in rapid sequence: 1) no filter, 2) <510 nm filter, 3) >590 nm filter, and 4) >650 nm filter (FIG. 22, FIG. 23). The photon flux as a percentage of an open filter was compared for both compounds (FIG. 23).
Briefly, murine anti-DNP IgE (20 μg, 100 μl) was intravenously injected to two C57/B mice.
Administration of luminol derivatives and imaging: Forty-eight hours post DNFB treatment, luminol-glycine Texas Red (LGTR, 1 mM in DMSO, left mouse) or luminol (1 mM In DMSO, right mouse) were applied topically (45 μl per ear) on both left and right ears. Thirty minutes later, mice were simultaneously imaged using the IVIS 100 imaging system (FOV 10 cm; binning, 8; acquisition time. 300 sec; f/stop, 1) using four different optical filler sets: (1) no filter, (2)<510 nm filler, (3)>590 nm filter and (4)>650 nm filter.

human blood = test: Ex vivo BLI of LGTR and luminol in human whole blood after PMA stimulation; format: cell-based
Protocol: For analysis of LGTR in whole blood, human blood was freshly drawn from a volunteer (by venous puncture). Blood was stored for up to 6 h in heparinized tubes at room temperature. Ex vivo BLI experiments using whole blood were performed in black-coated 96-well plates. Briefly, 200 μL of blood was added to the wells. LGTR, luminol, or DMSO ([…] of each) were added to the wells. Samples were imaged (exposure time, 160 sec; binning, 8; FOV, 10 cm; open filter or >590 nm) before (t=0) and at the indicated time points after stimulation with PMA (5 μM) or vehicle (ethanol, 1 μL). Photon fluxes±s.e.m. were plotted as a function of time post PMA (min) (FIG. 19). […] In addition, to isolate the buffy coat (white cells), whole blood was centrifuged at 700 rpm for 8 min, and subjected to the same analysis.

MPO activity [3] = conditions: 24 h after DNFB, luminol 200 mg/kg BW i.p.
Protocol: Briefly, murine anti-DNP IgE (20 μg in 100 μl, Sigma-Aldrich) was injected intravenously into 13 MPO^+/+ and 9 MPO^−/− mice. One control mouse of each genetic MPO background was injected with vehicle (saline) only. Twenty-four hours later, all left ears were painted with DNFB (0.2% in acetone:olive oil, 1:3) and all right ears were painted with vehicle (acetone:olive oil, 1:3). On the next day, all mice were imaged following luminol administration (200 mg/kg BW, i.p.). Mice were euthanized immediately after imaging and histological specimens were prepared from both left and right ears by fixation with paraformaldehyde (4%), de-calcification (24 h in 14% EDTA), paraffin-embedding, sectioning (5 μm) and staining with H&E. For each condition, eosinophils were counted in 5 HPF (magnification ×400).
Eosinophil-dominant recruitment and activation was induced by passive immunization against DNP followed by topical challenge with DNFB (Ray, M., et al., J. Immunol. 131, 1096-1102, 1983) in both MPO+/+ control as well as MPO^−/− mice. […] Acute allergic dermatitis was induced by passive immunization with anti-DNP IgE and topical challenge with DNFB on the left ear lobes of MPO^+/+ (n=14) and MPO^−/− (n=10) mice. Right ears served as vehicle controls and mice challenged with DNFB, but not anti-DNP IgE, served as negative controls. […]

MPO activity [4] = conditions: mouse, in vivo
Protocol: To induce acute skin inflammation (Fretland, D. J. et al. Inflammation 19, 333-346, 1995), PMA (100 μM, 20 μL) or vehicle (ethanol) were applied topically (left and right ear, respectively) on the inner and outer surface of the earlobe of MPO^−/− (n=5) or control (n=5) mice. Twenty-four and 48 hours later, luminol was administered (200 mg/kg BW, i.p.) and 10 min later mice were imaged (exposure time, 180 see; binning, 4; FOV, 7.5 cm) under anesthesia (isoflurane inhalation). ROI's were manually selected over the left and right ear lobes (PMA-treated and untreated, respectively) and over the central part of the skull (background). Data were expressed as (PMA—background)/(vehicle—background)±s.e.m.
Topical application of PMA onto the earlobes of mice induces acute dermatitis, manifested by local swelling, erythema and infiltration of neutrophils. […] We therefore used this model for assessment of MPO activity by luminol-BLI in both MPO^+/+ and MPO^−/− mice. Acute dermatitis was generated by topical application of PMA on the left ear lobe of MPO^+/+ or MPO^−/− mice (shown are three representative mice for each genetic background, n=5 for each). Twenty-four hours after topical application of PMA, mice were imaged (FIG. 3a) following the administration of luminol (200 mg/kg BW, i.p.).

MPO activity [5] = conditions: mouse, in vivo; remark: listed apart in the source
Protocol: MPO^−/− (n=5) or control MPO^+/+ (n=5) mice were briefly anaesthetized (isoflurane inhalation) and LPS (20 μg in 20 μL PBS) or vehicle (PBS, 20 μL) were injected into the left or right ankles, respectively, using a 30-gauge needle. Mice were administered luminol (as above) and imaged immediately after LPS administration under anesthesia (isoflurane inhalation), as well as 1, 2, 3, 4 and 5 days later (exposure time, 180 sec; binning, 4; FOV, 10 cm). ROIs were manually selected over the left and right feet (LPS-treated and untreated, respectively) and over the proximal part of the tail (background). Data were expressed as (LPS—background)/(vehicle—background)±s.e.m.
We next imaged MPO activity in a focal arthritis model. […] LPS was injected to the joints of the left lower limbs of wild type MPO^+/+ (FIG. 3b, left panel, n=5) or MPO^−/− mice (FIG. 3b, right panel, n=5). Vehicle (PBS) was injected into the joints of the right lower limbs. At t=0 (before LPS injection), 24, 48, 72, 96 and 120 h, luminol was administered (200 mg/kg BW, i.p.) and mice were imaged.

MPO activity [6] = conditions: mouse, in vivo; remark: listed apart in the source
Protocol: GzB→Tax mice were monitored for tumorigenesis on ears, limbs and tails by visual examination and palpation, weekly, for 200-300 days after birth. Ten mice with visible tumors at various sizes (1-8 mm in diameter) and locations were administered luminol (200 mg/kg BW, i.p.) and imaged (exposure time, 300 sec; binning, 4; FOV, 10 cm) under anesthesia (isoflurane inhalation). Tumors were excised, fixed in paraformaldehyde (4%), paraffin-embedded, sectioned (5 μm) and stained with H&E or immuno-stained for MPO (see below).
We next used BLI to examine tumor-bearing GzB→Tax mice after intraperitoneal administration of luminol (200 mg/kg BW, i.p., FIG. 5 c-g).

[7] = systemic administration; cited from earlier work
MPO [8] = target: T2, MPO (Homo sapiens, UniProt P05164)
T2 sequence (P05164 279-745 limits assumed): as the sequence (P05164 279-745 limits assumed) above
T2 sequence (P05164 165-273 limits assumed): as the sequence (P05164 165-273 limits assumed) above
Protocol: Matrigel was used to immobilize human MPO and/or GOX (that produces H2O2) in vivo (Chen, J. W., et al., Radiology 240, 473-481, 2006). Briefly, GOX (30 U), MPO (20 U), vehicle (PBS) or GOX+MPO (30 and 20 U, respectively) were added to Matrigel (200 μL) at 4° C. The four different mixtures were injected subcutaneously into different locations on the back of NCr nu/nu mice. Thirty minutes later, mice were anesthetized (isoflurane inhalation), administered luminol (200 mg/kg BW, i.p.) and imaged sequentially (exposure time, 60 sec; binning, 4; FOV, 7.5 cm) every 5 minutes up to one hour. Regions of interest (ROI) were manually selected over the four implants and total photon emissions from each implant were plotted as a function of time.
We next determined the biochemical requirements and pharmacokinetics of luminol-BL in an intact animal and whether MPO activity could be imaged in vivo. […] We embedded GOX (30 U), MPO (20 U); MPO+GOX (same concentrations) or vehicle (PBS) in Matrigel solution and established subcutaneous implants of these mixtures on the backs of NCR nu/nu mice (n=3, FIG. 2a).
Photon fluxes were determined from ROI's, manually drawn over the different implants and plotted as a function of time.

MPO [9] = target: T2, MPO; test: Dye stability: absorption spectra after treatment with H2O2 and MPO; format: physicochemical; parameters: purchased Calbiochem; conditions: H2O2 and MPO in Tris buffer, 30, 60 and 90 min
Protocol: In these experiments, absorption spectra were collected for Texas Red (TXR) and Infrared Dye 820 (IRD) treated with H2O2 and MPO (5 mU) in Tris buffer solution for 30 min, 60 min and 90 min as indicated. […] In these experiments, absorption spectra were collected (RLU vs nm wavelength) of Texas Red (TXR) and Infrared Dye 820 (IRD) treated with H2O2 and MPO ([…]) in Tris buffer solution for 30 min, 60 min and 90 min as indicated. (FIG. 17). […] (FIG. 18). […] Thus, in vitro NIR bioluminescence can be used to study dye and fluorophore stability under various experimental conditions. […]

[10] = whole blood 1 μL, luminol 100 μM, PMA 5 μM

Compound: c1ccc2c(c1)[I+]c1ccccc1-2 [DPI, diphenyleneiodonium]
- effect on PMA-induced BL ([1]; DPI 10 μM, MPO+/+ mouse blood, imaged 20 min after PMA 5 μM): complete abrogation

Compound: CN=C(N)NCCC[C@H](N)C(=O)O.O=C(O)CC(O)(CC(=O)O)C(=O)O [L-NMMA, L-N^G-monomethyl arginine citrate]
- effect on luminol-dependent BL ([1]; L-NMMA 1 mM, MPO+/+ mouse blood, imaged 20 min after PMA 5 μM): did not cause a significant reduction

- percent of the signal greater than 590 nm (red spectrum) (purified MPO; purified MPO 5 mU in MEBSS buffer, H2O2 50 μM): ~75%
- brightness compared with luminol (purified MPO; purified MPO in MEBSS buffer): brighter than luminol
- light output (purified MPO): no light output
Compound: O=C(CCCCCNS(=O)(=O)c1ccc(C2=c3cc4c5c(c3Oc3c2cc2c6c3CCCN6CCC2)CCC[N+]=5CCC4)c(S(=O)(=O)[O-])c1)NCC(=O)Nc1cccc2c(=O)[nH][nH]c(=O)c12 [LGTR]
- BL after induction of acute contact hypersensitivity (MPO activity [2]; MPO+/+ mice, 1 mM in DMSO topical, 45 μl per ear): substantial LGTR-BL
- photon flux compared with luminol (MPO activity [2]; filters >590 and 650 nm, topical 1 mM in DMSO): 3-4 fold
- signal over the luminol signals (human blood; early time points in whole blood): greater than 75%
- fraction of signal that was red (>590 nm) (human blood; human whole blood, 12 min post PMA stimulation): greater than 75%

- signal generated (purified MPO; control compound, purified MPO): no signal
Compound: NCC(=O)Nc1cccc2c(=O)[nH][nH]c(=O)c12 [luminol-glycine, 2-Amino-N-(1,4-dioxo-1,2,3,4-tetrahydrophthalazine-5-yl)acetamide]

- light output (purified MPO): no light output
- signal-to-background ratio for luminol-BLI (MPO [8]; MPO+GOX Matrigel implants in vivo): exceeded 3000
- absorption upon i.p. injection (MPO [8]; luminol 200 mg/kg BW i.p.): rapidly absorbed
- time to maximum BL after injection (MPO [8]; luminol 200 mg/kg BW i.p., MPO+GOX implant, NCr nu/nu mice): 10 min
Compound: Nc1cccc2c(=O)[nH][nH]c(=O)c12 [luminol, 5-amino-2,3-dihydro-1,4-phthalazine-dione]
- luminol-BL signal from inflamed ears (MPO activity [3]; MPO+/+ mice): substantial luminol-BL
- luminol-BL signal from inflamed ears (MPO activity [3]; MPO−/− mice): no significant luminol-BL signal
- BL of PMA-treated ears over vehicle-treated ears (MPO activity [4]): 1.9±0.5 fold
- background-normalized BL of PMA-treated ears over vehicle-treated ears (MPO activity [4]): 13.1±0.2 fold
- BL signal over background (MPO activity [5]): 10 to 15 fold
- luminol-BL from LPS- or vehicle-treated joints (MPO activity [5]): negligible
- peak BL emission, fold over vehicle-treated foot (MPO activity [5]): 25 to 30 fold
- signal-to-background ratio ([1]; few thousand phagocytes in 1 μL whole blood): > 30
- luminol-BL with whole blood of MPO−/− mice ([1]; luminol 100 μM, PMA 5 μM, 0-55 min): undetectable
- peak BL over background values [1, 10]: 30-40 fold
- time of BL peak post stimulation [1, 10]: 20 to 25 min
- localization of luminol-BL in tumor-bearing mice (MPO activity [6]): colocalized with foci of tumorigenesis
- photon output compared (human blood; human whole blood following PMA stimulation): exceeded LGTR
- absorption and excretion [7]: well absorbed and rapidly excreted
- toxicity [7]: relatively non-toxic

Compound: CC1(C)C(=CC=C2CCCC(C=CC3=[N+](CCCCS(=O)(=O)[O-])c4ccc5ccccc5c4C3(C)C)=C2Cl)N(CCCCS(=O)(=O)[O-])c2ccc3ccccc3c21.[Na+] [IRD]
- stability on exposure to MPO over time (MPO [9]): loss of IRD molecular integrity over time
